{"source": "patent US9062055B2", "about": "“Fused pyrrole derivatives as PI3K inhibitors” (Incyte Corporation, priority 2010, dated 2015)", "note": "Counter-ions that a name gives are not always drawn."}
{"target": "T1, PI3Kδ (p110δ/p85α) (Homo sapiens, UniProt O00329)", "T1 construct": "purchased Millipore (Bedford, Mass.)", "T1 sequence (O00329 whole entry)": "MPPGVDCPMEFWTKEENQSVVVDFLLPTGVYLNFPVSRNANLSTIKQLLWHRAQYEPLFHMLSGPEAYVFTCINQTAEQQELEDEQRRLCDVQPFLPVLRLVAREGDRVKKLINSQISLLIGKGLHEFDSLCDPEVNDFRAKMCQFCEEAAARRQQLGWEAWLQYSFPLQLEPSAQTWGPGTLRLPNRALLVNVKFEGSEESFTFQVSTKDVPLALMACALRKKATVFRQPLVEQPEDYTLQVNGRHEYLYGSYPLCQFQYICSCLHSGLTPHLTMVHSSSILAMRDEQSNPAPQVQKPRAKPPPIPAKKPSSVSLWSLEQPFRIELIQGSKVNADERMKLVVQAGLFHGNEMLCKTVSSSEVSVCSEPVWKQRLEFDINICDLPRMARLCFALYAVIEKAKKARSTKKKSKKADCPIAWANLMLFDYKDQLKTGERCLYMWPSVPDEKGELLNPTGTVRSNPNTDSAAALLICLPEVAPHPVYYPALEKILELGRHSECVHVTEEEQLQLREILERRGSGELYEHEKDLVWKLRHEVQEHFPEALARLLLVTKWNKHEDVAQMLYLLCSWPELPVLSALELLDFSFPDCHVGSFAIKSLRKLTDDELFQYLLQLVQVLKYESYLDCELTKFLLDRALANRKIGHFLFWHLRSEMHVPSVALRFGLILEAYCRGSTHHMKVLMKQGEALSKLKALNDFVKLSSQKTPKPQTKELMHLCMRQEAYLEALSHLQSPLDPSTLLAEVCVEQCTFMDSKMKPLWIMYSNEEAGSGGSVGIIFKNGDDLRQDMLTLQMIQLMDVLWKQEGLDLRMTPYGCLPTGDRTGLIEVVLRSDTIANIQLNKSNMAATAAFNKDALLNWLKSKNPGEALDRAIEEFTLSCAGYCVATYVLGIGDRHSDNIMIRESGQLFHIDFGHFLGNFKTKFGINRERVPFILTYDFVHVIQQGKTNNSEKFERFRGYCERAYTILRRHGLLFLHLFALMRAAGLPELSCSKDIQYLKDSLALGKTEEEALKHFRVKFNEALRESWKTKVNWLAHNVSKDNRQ", "T1 sequence (P27986 whole entry partner)": "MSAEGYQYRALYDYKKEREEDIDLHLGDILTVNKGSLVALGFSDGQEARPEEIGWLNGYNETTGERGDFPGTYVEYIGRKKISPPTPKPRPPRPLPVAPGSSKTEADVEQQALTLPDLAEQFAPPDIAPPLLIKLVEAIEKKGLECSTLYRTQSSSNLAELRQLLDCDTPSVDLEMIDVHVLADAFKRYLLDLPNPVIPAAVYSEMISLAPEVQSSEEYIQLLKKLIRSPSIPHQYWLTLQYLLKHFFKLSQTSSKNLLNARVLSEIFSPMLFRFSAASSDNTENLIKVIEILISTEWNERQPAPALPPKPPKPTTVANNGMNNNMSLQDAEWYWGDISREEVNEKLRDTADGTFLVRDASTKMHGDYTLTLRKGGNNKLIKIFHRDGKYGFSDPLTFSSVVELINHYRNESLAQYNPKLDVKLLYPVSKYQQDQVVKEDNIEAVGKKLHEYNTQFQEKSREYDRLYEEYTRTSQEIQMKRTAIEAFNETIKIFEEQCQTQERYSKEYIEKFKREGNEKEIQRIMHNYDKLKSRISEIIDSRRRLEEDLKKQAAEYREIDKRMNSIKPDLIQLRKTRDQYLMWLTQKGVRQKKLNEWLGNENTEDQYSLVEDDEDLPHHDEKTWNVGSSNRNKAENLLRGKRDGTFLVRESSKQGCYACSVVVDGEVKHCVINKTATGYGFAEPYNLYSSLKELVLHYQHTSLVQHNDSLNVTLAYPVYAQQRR", "assay": "PI3Kδ Scintillation Proximity Assay", "format": "biochemical", "settings": "TFA salts of racemates tested; 20 μM PIP2, 20 μM ATP, 4 nM PI3Kδ, 210 min, room temperature", "description": "[γ-^33P]ATP (10 mCi/mL) was purchased from Perkin-Elmer (Waltham, Mass.). Lipid kinase substrate, D-myo-Phosphatidylinositol 4,5-bisphosphate (PtdIns(4,5)P2)D (+)-sn-1,2-di-O-octanoylglyceryl, 3-O-phospho linked (PIP2), CAS 204858-53-7, was purchased from Echelon Biosciences (Salt Lake City, Utah). PI3Kδ (p110δ/p85α) was purchased from Millipore (Bedford, Mass.). ATP, MgCl2, DTT, EDTA, MOPS and CHAPS were purchased from Sigma-Aldrich (St. Louis, Mo.). Wheat Germ Agglutinin (WGA) YSi SPA Scintillation Beads was purchased from GE healthcare life sciences (Piscataway, N.J.). The kinase reaction was conducted in polystyrene 384-well matrix white plate from Thermo Fisher Scientific in a final volume of 25 μL. Inhibitors were first diluted serially in DMSO and added to the plate wells before the addition of other reaction components. The final concentration of DMSO in the assay was 0.5%. The PI3K assays were carried out at room temperature in 20 mM MOPS, pH 6.7, 10 mM MgCl2, 5 mM DTT and CHAPS 0.03%. Reactions were initiated by the addition of ATP, the final reaction mixture consisted of 20 μM PIP2, 20 μM ATP, 0.2 μCi [γ-^33P] ATP, 4 nM PI3Kδ. Reactions were incubated for 210 min and terminated by the addition of 40 μL SPA beads suspended in quench buffer: 150 mM potassium phosphate pH 8.0, 20% glycerol. 25 mM EDTA, 400 μM ATP. The final concentration of SPA beads was 1.0 mg/mL After the plate sealing, plates were shaken overnight at room temperature and centrifuged at 1800 rpm for 10 minutes, the radioactivity of the product was determined by scintillation counting on Topcount (Perkin-Elmer). IC50 determination was performed by fitting the curve of percent control activity versus the log of the inhibitor concentration using the GraphPad Prism 3.0 software. See Table 1 for data related to compounds of the invention (TFA salts of racemates of each of the compounds were tested).", "units": {"IC50": "nM"}}
{"smiles": "CC(Nc1ncnc2[nH]cnc12)c1cc2ccc(Cl)cc2n1-c1cccc(F)c1", "note": "(racemic) [Example 1, N-{1-[6-Chloro-1-(3-fluorophenyl)-1H-indol-2-yl]ethyl}-9H-purin-6-amine trifluoroacetate]", "IC50": "100 to 250"}
{"smiles": "CC(Nc1ncnc2[nH]cnc12)c1cc2c(Cl)cccc2n1-c1cccc(F)c1", "note": "(racemic) [Example 2, N-{1-[4-Chloro-1-(3-fluorophenyl)-1H-indol-2-yl]ethyl}-9H-purin-6-amine trifluoroacetate]", "IC50": "≤ 50"}
{"smiles": "CC(Nc1ncnc2[nH]cnc12)c1c(Cl)c2ccccc2n1-c1cccc(F)c1", "note": "(racemic) [Example 3, N-{1-[3-Chloro-1-(3-fluorophenyl)-1H-indol-2-yl]ethyl}-9H-purin-6-amine trifluoroacetate]", "IC50": "≤ 50"}
{"smiles": "CC(Nc1ncnc2[nH]cnc12)c1c(Cl)c2c(Cl)cccc2n1-c1cccc(F)c1", "note": "(racemic) [Example 4, N-{1-[3,4-Dichloro-1-(3-fluorophenyl)-1H-indol-2-yl]ethyl}-9H-purin-6-amine trifluoroacetate]", "IC50": "50 to 100"}
{"smiles": "CC(Nc1ncnc2[nH]cnc12)c1c(Br)c2ccccc2n1-c1cccc(F)c1", "note": "(racemic) [Example 5, N-{1-[3-Bromo-1-(3-fluorophenyl)-1H-indol-2-yl]ethyl}-9H-purin-6-amine trifluoroacetate]", "IC50": "50 to 100"}
{"smiles": "CC(Nc1ncnc2[nH]cnc12)c1c(Cl)c2cccnc2n1-c1cccc(F)c1", "note": "(racemic) [Example 6, N-{1-[3-Chloro-1-(3-fluorophenyl)-1H-pyrrolo[2,3-b]pyridin-2-yl]ethyl}-9H-purin-6-amine bis(trifluoroacetate)]", "IC50": "≤ 50"}
{"smiles": "CC(Nc1ncnc2[nH]cnc12)c1cc2cccnc2n1-c1cccc(F)c1", "note": "(racemic) [Example 7, N-(1-(1-(3-Fluorophenyl)-1H-pyrrolo[2,3-b]pyridin-2-yl)ethyl)-9H-purin-6-amine bis(2,2,2-trifluoroacetate)]", "IC50": "250 to 750"}
{"smiles": "Cc1c(C(C)Nc2ncnc3[nH]cnc23)n(-c2cccc(F)c2)c2ccccc12", "note": "(racemic) [Example 8, N-{1-[1-(3-Fluorophenyl)-3-methyl-1H-indol-2-yl]ethyl}-9H-purin-6-amine trifluoroacetate]", "IC50": "≤ 50"}
{"smiles": "CC(Nc1ncnc2[nH]cnc12)c1c(C#N)c2ccccc2n1-c1cccc(F)c1", "note": "(racemic) [Example 9, 2-(1-(9H-Purin-6-ylamino)ethyl)-1-(3-fluorophenyl)-1H-indole-3-carbonitrile 2,2,2-trifluoroacetate]", "IC50": "≤ 50"}
{"smiles": "CC(Nc1ncnc2[nH]cnc12)c1c(F)c2cccnc2n1-c1cccc(F)c1", "note": "(racemic) [Example 10, N-(1-(3-Fluoro-1-(3-fluorophenyl)-1H-pyrrolo[2,3-b]pyridin-2-yl)ethyl)-9H-purin-6-amine bis(2,2,2-trifluoroacetate)]", "IC50": "100 to 250"}
